Molecules are shown by their SMILES.

This is an account of results in US12691124B2, “Methods of controlling and improving brain health” (ICAHN SCHOOL OF MEDICINE AT MOUNT SINAI, priority 2019, dated 2026).

Assay [1] has as its system primary cortical neurons exposed to glutamate. The assay is described as follows: Glutamate excitotoxicity in primary cortical neurons. In kind it is cell-based, mouse. The protocol: LDH Assay. LDH activity was measured using the Pierce LDH Cytotoxicity Assay Kit. Culture media was incubated with an equal volume of LDH master mix and incubated for 30 minutes at room temperature in the dark. After, the same volume of stop reagent was added and the absorbance was measured at 490 and 680 nm. Maximum LDH measurements were obtained by adding lysis buffer to release the total amount of LDH in the sample. LDH release is calculated as a percent of the maximum.
Propidium Iodide Assay. Propidium iodide (1 mg/ml, Life Technologies #P3566) was added to each culture well at a final concentration of 0.5 μg/ml. Cultures were incubated for 30 minutes at 37 degrees then washed with PBS. Cells were then fixed with 4% paraformaldehyde in PBS for 15 minutes at room temperature. After fixation, cells were washed with PBS and then mounted using mounting media containing DAPI.
In addition to increasing longevity, rapamycin treatment protects neurons from toxic stimuli such as excessive glutamate. […] Because IBET858 increased neuronal lifespan to the same extent as rapamycin, it was hypothesized that BET inhibition could also induce a protective state in neurons. To test if IBET858 can prevent neuronal death, the neurons were exposed to excitotoxic levels of glutamate, a common in vitro assay that mirrors neuronal death observed in vivo after stroke or neurodegeneration. High levels of glutamate cause a strong influx of calcium into the neuron ultimately leading to necrosis followed by apoptosis.
Neurons were treated with IBET858 for increasing durations (2 h, 24 h, 72 h or 1 week) before stimulation with an excitotoxic amount of glutamate (1 mM) on day 14 when mature synapses fully express glutamate receptors. Chronic but not acute BET inhibition increases neuronal survival in response to glutamate toxicity, as measured by the LDH assay. […] Therefore a 1 week treatment time point was used for all subsequent experiments.

The next assay deals with T1, BRD2 (Mus musculus, UniProt Q7JJ13).
T1 construct: Primary cortical neurons express BRD2/3/4, with BRD2 and BRD4 being the most abundant; endogenous in cells; host or cells: primary cortical neuronal cultures (mouse)
T1 sequence (Q7JJ13 whole entry): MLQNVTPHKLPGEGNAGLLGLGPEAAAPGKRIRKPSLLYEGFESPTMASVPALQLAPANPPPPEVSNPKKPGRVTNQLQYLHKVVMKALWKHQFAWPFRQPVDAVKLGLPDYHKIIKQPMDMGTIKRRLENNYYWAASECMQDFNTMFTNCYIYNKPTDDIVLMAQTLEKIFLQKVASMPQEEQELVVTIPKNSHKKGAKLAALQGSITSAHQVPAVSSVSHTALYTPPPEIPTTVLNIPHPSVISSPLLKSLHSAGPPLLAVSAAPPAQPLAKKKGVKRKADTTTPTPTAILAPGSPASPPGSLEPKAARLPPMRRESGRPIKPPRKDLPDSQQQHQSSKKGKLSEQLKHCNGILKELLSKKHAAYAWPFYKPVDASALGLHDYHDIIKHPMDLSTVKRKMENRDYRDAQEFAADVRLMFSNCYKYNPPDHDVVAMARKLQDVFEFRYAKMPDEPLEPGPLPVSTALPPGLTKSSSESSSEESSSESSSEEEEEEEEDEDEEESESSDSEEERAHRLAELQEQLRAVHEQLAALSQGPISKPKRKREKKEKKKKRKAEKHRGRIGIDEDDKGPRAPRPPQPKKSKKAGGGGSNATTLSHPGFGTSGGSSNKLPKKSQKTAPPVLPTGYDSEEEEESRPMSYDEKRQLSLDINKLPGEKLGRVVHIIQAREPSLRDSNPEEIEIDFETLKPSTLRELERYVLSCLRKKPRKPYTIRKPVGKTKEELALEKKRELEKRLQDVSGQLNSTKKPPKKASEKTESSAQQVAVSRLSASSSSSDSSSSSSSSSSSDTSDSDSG
The assay is described as follows: ChIP sequencing of BRD2 chromatin occupancy in neurons. In kind it is cell-based. The protocol:
Chromatin Immunoprecipitation with Sequencing. Primary cortical neuronal cultures were washed once with PBS then fixed for 10 minutes with a 1% formaldehyde solution in PBS with protease inhibitors (Sigma #P8340) at room temperature. Fixation was quenched adding glycine to a final concentration of 0.125M (5 minutes, room temperature). 10e6 fixed cells were resuspended in 1 ml of lysis buffer (50 mM Hepes KOH, pH7.5, 140 mM NaCl, 1 mM EDTA, 10% glycerol, 0.5% NP-40, 0.25% Triton X-100) and 10 ul of protease inhibitor cocktail (PIC). Samples were rotated for 10 minutes at 4 degrees then spun at 1350 g at 4 C for 10 minutes. Pellets were resuspended in 1 ml of lysis buffer 2 (10 mM Tris-HCl pH8.0, 200 mM NaCl, 1 mM EDTA, 0.5 mM EGTA) and 10 ul PIC.). 5e6 nuclei were sonicated in lysis buffer 3 (10 mM Tris-HCl pH8.0, 100 mM NaCl, 1 mM EDTA, 0.5 mM EGTA, 0.1% Na-Deoxicholate, 0.5% N-Lauroylsarcosine) at 4 degrees for 5 cycles of 30 seconds ON/30 seconds OFF using the Diagenode bioruptor. After, 30 ul of 10% Triton-X100 was added to each sample and then spun for 15 minutes at 20,000 g at 4 degrees. Sonication efficiency was checked by running the samples on a 2% agarose gel to confirm enrichment for fragments from 200-500 bps.
Streptavidin M-280 dynabeads were blocked with 0.5% BSA solution and coupled to 7 ug of antibody (Brd4 #Ab84778, Brd2 Bethyl #A302-583A, Pol2 Ser5 #Ab5408) for at least 8 hours at 4 degrees, rotating. Antibody-coupled beads were then added to sonicated chromatin (20e6 cells for Brd2/Brd4, 10e6 for Pol2) and incubated overnight at 4 degrees. After washing the IPs eight times with wash buffer (50 mM Hepes-KOH pH7.6, 100 mM LiCl, 1 mM EDTA, 1% NP-40, 0.7% Na-Deoxycholate) and once with TE buffer (10 mM Tris-HCl, 1 mM EDTA, 50 mM NaCl), Chromatin was eluted from magnetic beads in 200 ul elution buffer ([…] Tris-HCl pH8.0, 10 mM EDTA, 1% SDS) for 45 minutes at 65 degrees. Samples were de-crosslinked overnight at 65 degrees and proteins and RNA were removed by incubating with RNAse and proteinase k. Samples were purified using the Qiagen PCR purification kit according to the manufacturers protocol.
Samples were end-repaired using the End-IT DNA End-Repair Kit (#ER0720). After 45 minutes incubation, samples were purified using the Qiagen PCR Clean up kit as described above. Samples were adenylated using a reaction mix (200 uM dATP, 1× Klenow buffer NEB2, Klenow Fragment (3′ to 5′ exo-), NEB M0212L) and incubating at 37 degrees for 30 minutes. […] Raw sequencing reads were then aligned to the mouse mm9 genome using the default settings of Bowtie (v2.2.0)87. Only uniquely mapped reads were retained, and the alignments were subsequently filtered using the SAMtools package (v0.1.19)88 to remove duplicate reads. […]

In the case of `CC(=O)N1c2ccc(-c3ccc(CN4CCCCC4)cc3)cc2[C@H](Nc2ccccc2)CC1C` (stereo in doubt) [IBET858], the “protection from excitotoxicity, IBET858 compared with rapamycin” value in assay [1] (1 week IBET858 1 μM, Rapamycin 20 nM, 1 mM glutamate) was “as well as rapamycin”. Besides, in assay [1] (1 week pretreatment, 1 mM glutamate), the “cell death after glutamate exposure, propidium iodide” value is reported as “fewer neurons treated with IBET858 die”. For the same compound, the “excitotoxicity-induced neuronal death, LDH assay” value in assay [1] (1 week pretreatment, 1 mM glutamate, day 14) is “almost completely prevents”; in assay [1] (72 h pretreatment, 1 mM glutamate) it was “mild protective effect”. Further, the “neuroprotective phenotype after washout, glutamate exposure” value in assay [1] (temporary pretreatment, wash out, 4 days on DMSO, 1 mM glutamate day 14) is recorded as “neuroprotective phenotype that is maintained even in the absence of IBET”. Besides, the “genes that lose BRD2 at the transcriptional start site” value on BRD2 (6 h IBET858) turned out to be 1497 genes. Besides, the “genes with gain of BRD2 at the transcriptional start site” value at BRD2 (6 h IBET858) is reported as 828 genes. The “loci with reduced occupancy of BRD2” value at BRD2 (DIV7, 6 h IBET858) was determined as 2099 loci. Besides, the “loci with increased occupancy of BRD2” value on BRD2 (day 7, 6 h IBET858) is on record as 1680 loci.
